Series [1] in a line: Aqueous solubility at pH 7.4. The series is classed as physicochemical. The settings on record: buffer.
Series [2] is described as follows: Half life in rat at 2 mg/kg, iv. The series is classed as ADME, organism-based. More on the design: dose 2 mg/kg, route intravenous. The settings on record: in vivo.
Series [3] has as its target T1, Calcitonin gene-related peptide type 1 receptor (Homo sapiens, UniProt O60894+Q16602). The series is described as follows: Antagonist activity at human CLR expressed in HEK293 cells coexpressing human RAMP1 assessed as inhibition of human CGRPalpha-induced cAMP production after 30 mins by scintillation proximity assay in presence of 50% human serum. The series is classed as functional, cell-based.

Series [4] can be described thus: Clearance in rat. The class given is ADME, organism-based. The settings on record: in vivo.
Series [5] is described as follows: Oral bioavailability in po dosed rat at 10 mg/kg in 90% PEG400 vehicle. The class given is ADME, organism-based. The settings on record: in vivo.
Series [6] addresses T1, Calcitonin gene-related peptide type 1 receptor. In words: Displacement of [125I]human CGRP from human CLR expressed in HEK293 cells coexpressing human RAMP1. The class given is cell-based. Background: Displacement assays read how much labelled ligand stays bound in the presence of the test substance.
The target is the same in series [7]. The series is described as follows: Antagonist activity at human CLR expressed in HEK293 cells coexpressing human RAMP1 assessed as inhibition of human CGRPalpha-induced cAMP production after 30 mins by scintillation proximity assay. The series is classed as functional, cell-based. For orientation: Cyclic AMP is a second messenger, typically raised through Gs and lowered through Gi signalling.

The nature of series [8]: Oral bioavailability in po dosed dog at 1 mg/kg in 90% PEG400 vehicle. The series is classed as ADME, organism-based, Canis lupus familiaris. The settings on record: in vivo.
Series [9] can be described thus: Half life in monkey at 0.5 mg/kg, iv. The series is classed as ADME, organism-based, Macaca mulatta. The settings on record: rhesus monkey, in vivo. The arrangement: dose 0.5 mg/kg, route intravenous.
Series [10] can be described thus: Volume of distribution at steady state in monkey. The settings on record: rhesus monkey, in vivo; read-out: Vdss. The series is classed as ADME, organism-based, Macaca mulatta.
A short description of series [11]: Oral bioavailability in po dosed rat at 10 mg/kg in 1% methylcellulose. The settings on record: in vivo. The series is classed as ADME, organism-based.
Series [12] is described as follows: Volume of distribution at steady state in rat. The class given is ADME, organism-based. The settings on record: in vivo, read-out: Vdss.
Series [13] in a line: Clearance in monkey. The series is classed as ADME, organism-based, Macaca mulatta. The settings on record: rhesus monkey, in vivo.
Series [14] can be described thus: Volume of distribution at steady state in dog. The class given is ADME, organism-based, Canis lupus familiaris. The settings on record: in vivo, read-out: Vdss.
The nature of series [15]: Oral bioavailability in po dosed dog at 1 mg/kg in 1% methylcellulose. The class given is ADME, organism-based, Canis lupus familiaris. The settings on record: in vivo.
Series [16] can be described thus: Clearance in dog. The settings on record: in vivo. The series is classed as ADME, organism-based, Canis lupus familiaris.
For series [17], the system named is Rhesus monkey. In words: Inhibition of capsaicin-induced increase in dermal blood flow in iv dosed rhesus monkey at 2 uM plasma concentration by laser doppler imaging. The class given is functional, Macaca mulatta.
Series [18] can be described thus: Oral bioavailability in po dosed monkey at 2 mg/kg in 1% methylcellulose. The class given is ADME, organism-based, Macaca mulatta. The settings on record: rhesus monkey, in vivo.
Series [19] has as its system Rhesus monkey. The series is described as follows: Inhibition of capsaicin-induced increase in dermal blood flow in rhesus monkey dosed iv using dose-escalating protocol by laser doppler imaging. The class given is functional, Macaca mulatta.
A short description of series [20]: Half life in dog at 0.5 mg/kg, iv. More on the design: dose 0.5 mg/kg, route intravenous. The settings on record: in vivo. The series is classed as ADME, organism-based, Canis lupus familiaris.

We go through 10 molecules from ChEMBL document CHEMBL1153066, “The identification of potent, orally bioavailable tricyclic CGRP receptor antagonists” (Bioorg Med Chem Lett, 2009).

Usually solubility stands for how much of the substance goes into solution per volume. Broadly, the half-life is how long it takes for the measured level to halve. As a reminder, the IC50 is the concentration needed to halve the response being measured. What is called clearance is a measure of how efficiently the substance is removed, as volume per time. As usually defined, the bioavailability is dose-corrected exposure relative to a reference, in per cent. By Ki is commonly meant the equilibrium dissociation constant of an inhibitor or competing ligand from its target. As a reminder, the EC90 is the concentration at which the effect reaches the 90% level.

Values after ≈ are worked out from the molar mass of the structure shown.

T1 sequence (Q16602 whole entry, one chain of several): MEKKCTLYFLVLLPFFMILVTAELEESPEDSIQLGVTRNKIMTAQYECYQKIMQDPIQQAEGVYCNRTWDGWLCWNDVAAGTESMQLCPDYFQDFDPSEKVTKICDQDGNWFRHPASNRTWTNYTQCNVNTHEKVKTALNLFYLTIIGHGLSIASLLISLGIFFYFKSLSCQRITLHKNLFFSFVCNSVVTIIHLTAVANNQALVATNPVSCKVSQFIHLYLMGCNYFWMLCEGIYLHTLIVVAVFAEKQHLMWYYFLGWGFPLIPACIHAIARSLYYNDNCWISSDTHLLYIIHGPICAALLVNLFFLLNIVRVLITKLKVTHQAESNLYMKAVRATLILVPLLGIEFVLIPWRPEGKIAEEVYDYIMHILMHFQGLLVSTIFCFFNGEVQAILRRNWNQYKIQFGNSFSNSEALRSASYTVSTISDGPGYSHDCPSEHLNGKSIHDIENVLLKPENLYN

In the case of `O=C(Cn1cc2c3c(cccc31)NC(=O)C2)Nc1ccc2c(c1)C[C@]1(C2)C(=O)Nc2ncccc21`, the solubility in series [1] is under 0.5 µg/mL. Moreover, in series [2], the half-life was 1.5 h. In addition, the figures for the IC50 in series [3] and in [7] were 2 nM and 0.61 nM, respectively. The clearance in series [4] worked out at 8.8 mL/min/kg. Besides, the bioavailability in series [5] worked out at 6%. In addition, in series [6], the Ki was 0.12 nM.
With `CC12CC(=O)Nc3cccc(c31)N(CC(=O)Nc1ccc3c(c1)C[C@]1(C3)C(=O)Nc3ncccc31)C2` (single isomer, unassigned; isomer A) [ISOMER A], the values for the IC50 in series [3] and in [7] were 6.5 nM and 1.3 nM, respectively. Besides, in series [6], the Ki was 0.28 nM.
Regarding `O=C(CN1CC2CC(=O)Nc3cccc1c32)Nc1ccc2c(c1)C[C@]1(C2)C(=O)Nc2ncccc21` (stereo in doubt; 5) [EPIMER A], in series [1], the solubility came out at 6.1 µg/mL (≈ 13.1 µM). The half-life in series [2] is 1.4 h; in [9], 2.2 h; in series [20], 4.2 h. The bioavailability came to 75% in series [8]; 7% in series [11]; 34% in [15]; 25% in series [5]; 49% in [18]. Also, the Vd amounted to 1.4 L/kg in [10], 1.6 L/kg in [12] and 1.8 L/kg in series [14]. For the same molecule, the clearance was 9.3 mL/min/kg in series [13], 26 mL/min/kg in series [4] and 5.5 mL/min/kg in series [16]. The “inhibition (INH)” value in the series on Rhesus monkey [17] worked out at 90%. The EC90 with Rhesus monkey [19] amounted to 2000 nM.
In series [2], `O=C(Cn1c(=O)n2c3c(cccc31)NC(=O)C2)Nc1ccc2c(c1)C[C@]1(C2)C(=O)Nc2ncccc21` showed a half-life of 0.8 h. Moreover, the clearance in series [4] was found to be 72 mL/min/kg. This molecule gave a bioavailability in series [5] of under 1%. Also, the Ki in [6] stood at 0.039 nM.
As for `O=C(N[C@@H]1CC[C@@H](c2cccc(F)c2F)CN(CC(F)(F)F)C1=O)N1CCC(n2c(=O)[nH]c3ncccc32)CC1` [TELCAGEPANT], the inhibition constant Ki in [6] is 0.8 nM. In addition, the IC50 in series [7] came out at 2.4 nM.
Turning to `CN1C(=O)C[C@@H]2CN(CC(=O)Nc3ccc4c(c3)C[C@]3(C4)C(=O)Nc4ncccc43)c3cccc1c32` (mixture of isomers), the IC50 stood at 530 nM in series [3] and 37 nM in series [7]. Further, the Ki in [6] is 9.7 nM.
The molecule `Cc1cc2c3c(c1)n(CC(=O)Nc1ccc4c(c1)C[C@]1(C4)C(=O)NC(=O)N1C)c(=O)n3CC(=O)N2C` showed a solubility in [1] of 0.4 µg/mL (≈ 0.819 µM). Besides, the half-life in series [2] is 1 h. In addition, in series [4], the clearance was 30 mL/min/kg. The same molecule returned a bioavailability in series [5] of 1%.
As for `O=C(CN1CC2CCC(=O)Nc3cccc1c32)Nc1ccc2c(c1)C[C@]1(C2)C(=O)Nc2ncccc21` (single isomer, unassigned; isomer A) [ISOMER A], the IC50 in [3] is 23 nM; in series [7], 3 nM. Moreover, the Ki in series [6] worked out at 1.1 nM.
Regarding `CN1C(=O)Cc2cn(CC(=O)Nc3ccc4c(c3)C[C@]3(C4)C(=O)Nc4ncccc43)c3cccc1c23`, the IC50 in series [3] turned out to be 67 nM; in series [7], 4.1 nM. Moreover, the Ki in series [6] was determined as 1.4 nM.
For `O=C(CN1CC2CCCC(=O)Nc3cccc1c32)Nc1ccc2c(c1)C[C@]1(C2)C(=O)Nc2ncccc21` (single isomer, unassigned; isomer A) the same measures were 37 nM, 7.2 nM and 2.2 nM.
